16 molecules from patent USRE47302E1 (ONYX THERAPEUTICS INC., priority 2013, dated 2019) can be followed below.

The structures appear in SMILES notation. Converted amounts (≈) assume the structure as drawn.

Data set [1] addresses T1, proteasome subunit β5 (beta5) (Homo sapiens, UniProt P28074).
T1 construct: Lysate from the human acute lymphoblastic leukemia cell line, MOLT-4; endogenous in cells; host or cells: MOLT-4
In words: Proteasome active-site ELISA (ProCISE), beta5, MOLT-4 lysate. The conditions noted are these: MOLT4 lysate, human, 1 h continuous treatment, 25° C. It is filed as biochemical. The procedure, abridged: (§1)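 MOLT-4 cell lysate treated 1 h at 25 °C with compound; probe-bound subunits denatured, pulled down on streptavidin beads and detected with subunit-specific antibodies plus HRP chemiluminescence.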
(An ELISA detects its analyte on a solid surface through an enzyme-linked reagent.)

A further data set can be described thus: Solubility pH 7. The conditions noted are these: pH 7, aqueous buffer.
In data set [2] the target is human constitutive 20S proteasome (c20S) (Homo sapiens, UniProt P28074). In words: 20S proteasome assay, chymotrypsin-like activity (succinyl-Leu-Leu-Val-Tyr-AMC), c20S. It is filed as biochemical. Particulars: LLVY substrate, 1 h continuous. From the text:
(§2) Assay buffer consisted of TE buffer [20 mmol/L Tris (pH 8.0), 0.5 mmol/L EDTA] with (20S) or without (cell lysate) 0.03% SDS. Reactions were initiated by enzyme or lysate addition and monitored for AMC product formation at 27jC with a plate-based spectofluorometer (Tecan).

The target of data set [3] is T2, immunoproteasome subunit LMP7 (Homo sapiens, UniProt P28062).
T2 construct: Lysate from the human acute lymphoblastic leukemia cell line, MOLT-4; endogenous in cells; host or cells: MOLT-4
The data set is described as follows: Proteasome active-site ELISA (ProCISE), LMP7, MOLT-4 lysate. Type of data set: biochemical. Particulars: MOLT4 lysate, 1 h continuous treatment, 25° C. An outline of the steps: as §1

The target of data set [4] is human 20S immunoproteasome (i20S) (Homo sapiens, UniProt P28062). In words: 20S proteasome assay, chymotrypsin-like activity (succinyl-Leu-Leu-Val-Tyr-AMC), i20S. It is filed as biochemical. Particulars: LLVY substrate, 1 h continuous.
Source text: as §2

Usually IC50 stands for the concentration that gives 50% inhibition. A lower IC50 goes with greater potency. A word on the solubility: it is the dissolved amount per volume that the medium holds. Regarding `COc1ccc(C[C@H](NC(=O)[C@H](C)NC(=O)CN2CCOCC2)C(=O)N[C@@H](CC2CCCC2)C(=O)[C@@]2(C)CO2)cc1` [Compound C-1005, (S)-N-((S)-3-cyclopentyl-1-((R)-2-methyloxiran-2-yl)-1-oxopropan-2-yl)-3-(4-methoxyphenyl)-2-((S)-2-(2-morpholinoacetamido)propanamido)propanamide], the IC50 in data set [1] was found to be 1940 nM; in data set [2], 519 nM; in data set [3], 185 nM; in data set [4], 70.4 nM. This molecule also gave a solubility in the data set “Solubility pH 7” of 1760 µg/mL (≈ 3080 µM).

For the molecule `C[C@H](NC(=O)CN1CCOCC1)C(=O)N[C@@H](Cc1ccc2occc2c1)C(=O)N[C@@H](CC1CCCC1)C(=O)[C@@]1(C)CO1` [Compound C-1007, (S)-3-(benzofuran-5-yl)-N-((S)-3-cyclopentyl-1-((R)-2-methyloxiran-2-yl)-1-oxopropan-2-yl)-2-((S)-2-(2-morpholinoacetamido)propanamido)propanamide], the IC50 in data set [1] was found to be 2360 nM; in data set [2], 440 nM; in data set [3], 314 nM; in data set [4], 106 nM. Also, in the data set “Solubility pH 7”, the concentration in solution (solubility) was 878 µg/mL (≈ 1510 µM).

In the case of `COc1ccc(C[C@H](NC(=O)[C@H](C)NC(=O)CN2CCOCC2)C(=O)N[C@@H](CC2=CCCC2)C(=O)[C@@]2(C)CO2)cc1` [Compound C-1009, (S)-N-((S)-3-(Cyclopent-1-en-1-yl)-1-((R)-2-methyloxiran-2-yl)-1-oxopropan-2-yl)-3-(4-methoxyphenyl)-2-((S)-2-(2-morpholinoacetamido)propanamido)propanamide], the IC50 in data set [1] came out at 926 nM; in data set [2] it was 351 nM; in data set [3], 83.1 nM; in data set [4] it was 46.2 nM. In “Solubility pH 7”, this molecule yielded a solubility of 2730 µg/mL (≈ 4790 µM).

Regarding `COc1ccc(C[C@H](NC(=O)[C@H](C)NC(=O)CC2CCOCC2)C(=O)N[C@@H](CC2CCCC2)C(=O)[C@@]2(C)CO2)cc1` [Compound C-1010, (S)-N-((S)-3-cyclopentyl-1-((R)-2-methyloxiran-2-yl)-1-oxopropan-2-yl)-3-(4-methoxyphenyl)-2-((S)-2-(2-(tetrahydro-2H-pyran-4-yl)acetamido)propanamido)propanamide], the IC50 was found to be 695 nM in data set [1], 119 nM in data set [2], 99.6 nM in data set [3] and 24.4 nM in data set [4]. This molecule showed a solubility in “Solubility pH 7” of 185 µg/mL (≈ 324 µM).

Take `COc1ccc(C[C@H](NC(=O)[C@@H](C)NC(=O)CC2CCOCC2)C(=O)N[C@@H](CC2CCCC2)C(=O)[C@@]2(C)CO2)cc1` [Compound C-1011, (S)-N-((S)-3-cyclopentyl-1-((R)-2-methyloxiran-2-yl)-1-oxopropan-2-yl)-3-(4-methoxyphenyl)-2-((R)-2-(2-(tetrahydro-2H-pyran-4-yl)acetamido)propanamido)propanamide]: the 50% inhibitory concentration (IC50) in data set [1] is 6970 nM; in data set [2], 1550 nM; in data set [3] it was 556 nM; in data set [4], 98.8 nM. Further, in the data set “Solubility pH 7”, the concentration in solution (solubility) was 1120 µg/mL (≈ 1950 µM).

Regarding `C[C@H](NC(=O)CN1CCOCC1)C(=O)N[C@@H](Cc1ccc2c(c1)OCO2)C(=O)N[C@@H](CC1CCCC1)C(=O)[C@@]1(C)CO1` [Compound C-1012, (S)-3-(benzo[d][1,3]dioxol-5-yl)-N-((S)-3-cyclopentyl-1-((R)-2-methyloxiran-2-yl)-1-oxopropan-2-yl)-2-((S)-2-(2-morpholinoacetamido)propanamido)propanamide], the IC50 in data set [1] is 1280 nM; in data set [2], 470 nM; in data set [3] it was 167 nM; in data set [4], 92.5 nM. Moreover, the solubility in the data set “Solubility pH 7” amounted to 1720 µg/mL (≈ 2940 µM).

`C[C@H](NC(=O)CN1CCOCC1)C(=O)N[C@@H](Cc1coc2ccccc12)C(=O)N[C@@H](CC1CCCC1)C(=O)[C@@]1(C)CO1` [Compound C-1015, (S)-3-(benzofuran-3-yl)-N-((S)-3-cyclopentyl-1-((R)-2-methyloxiran-2-yl)-1-oxopropan-2-yl)-2-((S)-2-(2-morpholinoacetamido)propanamido)propanamide]: the half-inhibitory concentration (IC50) in data set [1] was determined as 1140 nM; in data set [2], 506 nM; in data set [3], 498 nM; in data set [4] it was 167 nM. In addition, in the data set “Solubility pH 7”, the concentration in solution (solubility) came to 212 µg/mL (≈ 364 µM).

Regarding `COc1ccc(C[C@H](NC(=O)[C@H](C)NC(=O)CN2CCOCC2)C(=O)N[C@@H](CC2CCCC2)C(=O)[C@@]2(C)CO2)cc1O` [Compound C-1018, (S)-N-((S)-3-cyclopentyl-1-((R)-2-methyloxiran-2-yl)-1-oxopropan-2-yl)-3-(3-hydroxy-4-methoxyphenyl)-2-((S)-2-(2-morpholinoacetamido)propanamido)propanamide], the IC50 in data set [1] was found to be 1730 nM; in data set [2], 656 nM; in data set [3], 184 nM; in data set [4], 170 nM. In “Solubility pH 7”, this molecule returned a solubility of 5840 µg/mL (≈ 9910 µM).

In the case of `COc1ccc(C[C@H](NC(=O)[C@@H](C)NC(=O)C2CCCC2)C(=O)N[C@@H](CC2CCCC2)C(=O)[C@@]2(C)CO2)cc1` [Compound C-1021, N-((R)-1-(((S)-1-(((S)-3-cyclopentyl-1-((R)-2-methyloxiran-2-yl)-1-oxopropan-2-yl)amino)-3-(4-methoxyphenyl)-1-oxopropan-2-yl)amino)-1-oxopropan-2-yl)cyclopentanecarboxamide], the IC50 in data set [1] was 1900 nM; in data set [2], 3540 nM; in data set [3], 113 nM; in data set [4], 144 nM. Moreover, the solubility in the data set “Solubility pH 7” is 19.3 µg/mL (≈ 35.6 µM).

In the case of `COc1ccc(C[C@H](NC(=O)[C@H](C)NC(=O)CN2CCOCC2)C(=O)N[C@@H](CC2=C(C)CCC2)C(=O)[C@@]2(C)CO2)cc1` [Compound C-1044, (S)-3-(4-methoxyphenyl)-N-((S)-3-(2-methylcyclopent-1-en-1-yl)-1-((R)-2-methyloxiran-2-yl)-1-oxopropan-2-yl)-2-((S)-2-(2-morpholinoacetamido)propanamido)propanamide], the concentration in solution in the data set “Solubility pH 7” (solubility) came to 1900 µg/mL (≈ 3250 µM). Besides, the half-maximal inhibitory concentration (IC50) in data set [2] is 9090 nM; in data set [4], 2580 nM.

In “Solubility pH 7”, `COc1ccc(C[C@H](NC(=O)[C@H](C)NC(=O)CN2CCC(Cl)CC2)C(=O)N[C@@H](CC2CCCC2)C(=O)[C@@]2(C)CO2)cc1` [Compound C-1045, (S)-2-((S)-2-(2-(4-chloropiperidin-1-yl)acetamido)propanamido)-N-((S)-3-cyclopentyl-1-((R)-2-methyloxiran-2-yl)-1-oxopropan-2-yl)-3-(4-methoxyphenyl)propanamide] gave a solubility of 50.2 µg/mL (≈ 83 µM). For the same molecule, the concentration for half-maximal inhibition (IC50) in data set [2] came to 470 nM; in data set [4], 308 nM.

Turning to `COc1ccc(C[C@H](NC(=O)[C@H](C)NC(=O)CN2CCC(C(F)(F)F)CC2)C(=O)N[C@@H](CC2CCCC2)C(=O)[C@@]2(C)CO2)cc1` [Compound C-1047, (S)-N-((S)-3-cyclopentyl-1-((R)-2-methyloxiran-2-yl)-1-oxopropan-2-yl)-3-(4-methoxyphenyl)-2-((S)-2-(2-(4-(trifluoromethyl)piperidin-1-yl)acetamido)propanamido)propanamide], the solubility in “Solubility pH 7” turned out to be 24.1 µg/mL (≈ 37.7 µM). Moreover, the IC50 in data set [2] is 707 nM; in data set [4], 438 nM.

As for `COc1ccc(C[C@H](NC(=O)[C@H](C)NC(=O)CN2CCC(F)(F)C2)C(=O)N[C@@H](CC2CCCC2)C(=O)[C@@]2(C)CO2)cc1` [Compound C-1048, (S)-N-((S)-3-cyclopentyl-1-((R)-2-methyloxiran-2-yl)-1-oxopropan-2-yl)-2-((S)-2-(2-(3,3-difluoropyrrolidin-1-yl)acetamido)propanamido)-3-(4-methoxyphenyl)propanamide], in the data set “Solubility pH 7”, the concentration in solution (solubility) was 153 µg/mL (≈ 258 µM). The IC50 is 2630 nM in data set [2] and 549 nM in data set [4].

`COc1ccc(C[C@H](NC(=O)[C@@H](C)NC(=O)[C@@H]2CCC(=O)NC2)C(=O)N[C@@H](CC2CCCC2)C(=O)[C@@]2(C)CO2)cc1` [Compound C-1058, (R)-N-((R)-1-(((S)-1-(((S)-3-cyclopentyl-1-((R)-2-methyloxiran-2-yl)-1-oxopropan-2-yl)amino)-3-(4-methoxyphenyl)-1-oxopropan-2-yl)amino)-1-oxopropan-2-yl)-6-oxopiperidine-3-carboxamide]: the solubility in the data set “Solubility pH 7” was found to be 3010 µg/mL (≈ 5270 µM). Besides, the IC50 in data set [2] came out at 54800 nM; in data set [4], 1610 nM.

The molecule `COc1ccc(C[C@H](NC(=O)[C@@H](C)NC(=O)[C@H]2CCC(=O)NC2)C(=O)N[C@@H](CC2CCCC2)C(=O)[C@@]2(C)CO2)cc1` [Compound C-1059, (S)-N-((R)-1-(((S)-1-(((S)-3-cyclopentyl-1-((R)-2-methyloxiran-2-yl)-1-oxopropan-2-yl)amino)-3-(4-methoxyphenyl)-1-oxopropan-2-yl)amino)-1-oxopropan-2-yl)-6-oxopiperidine-3-carboxamide] returned a solubility in the data set “Solubility pH 7” of 6010 µg/mL (≈ 10500 µM). The results for the IC50 in data set [2] and in data set [4] were 38400 nM and 1650 nM, respectively.

`C[C@H](NC(=O)CN1CCOCC1)C(=O)N[C@@H](Cc1ccc(F)cn1)C(=O)N[C@@H](Cc1ccccc1)C(=O)[C@@]1(C)CO1` [Compound C-1154, (S)-3-(5-fluoropyridin-2-yl)-N-((S)-1-((R)-2-methyloxiran-2-yl)-1-oxo-3-phenylpropan-2-yl)-2-((S)-2-(2-morpholinoacetamido)propanamido)propanamide] came in with a solubility in the data set “Solubility pH 7” of 1910 µg/mL (≈ 3350 µM). Moreover, the half-inhibitory concentration (IC50) in data set [2] worked out at 301 nM; in data set [4], 113 nM.
